From article PMC8621208, “Antiseptic 9-Meric Peptide with Potency against Carbapenem-Resistant Acinetobacter baumannii Infection” (International Journal of Molecular Sciences, 2021)
Converted amounts (≈) assume the structure as drawn. Like-named read-outs stand apart in the source and are kept apart here.

Legend:
[1] = tested on: standard Gram-negative bacteria and carbapenem-resistant Gram-negative bacteria; test: Mean MIC over all bacterial strains (GM) and selective index; format: cell-based; conditions: read-out: GM (geometric mean of MIC values of all bacterial strains)
Experimental: (§1) The minimum inhibitory concentrations (MIC) were determined using broth dilution method. Briefly, all the mentioned bacterial strains were grown overnight at 37 °C by Muller–Hinton (MH) media. […] After 16 h incubation, the bacterial growth was read at 600 nm using a SpectraMAX microplate reader (Molecular Devices, San Jose, CA, USA).

P. aeruginosa = test: MIC, broth dilution; format: cell-based, Pseudomonas aeruginosa KCCM 11328; conditions: Pseudomonas aeruginosa, 16 h, MH media, read-out: Minimal Inhibitory Concentration (MIC)
Description: (§2) Escherichia coli KCTC 1682 was obtained from the Korean Collection for Type Cultures (KCTC) (Jeongeup-si, Korea), Acinetobacter baumannii KCCM 40203, Pseudomonas aeruginosa KCCM 11328 from the Korea Culture Center of Microorganisms (KCCM) (Seoul, Korea). Klebsiella pneumoniae NCCP 16054 were obtained from the National Culture Collection for Pathogens (NCCP) (Osong, Korea). Additionally, two carbapenem-resistant E. coli (CREC E1 and E2), 11 carbapenem-resistant A. baumannii (CRAB C0–C10) and two carbapenem-resistant K. pneumoniae (CRKP K1 and K2) were isolated from the patients, who presented symptoms and signs of infection at Korea University Anam Hospital (Seoul, Korea) (IRB registration no. 2020AN0157, 4 March 2021). CRAB C0–C10 have the OXA-23 gene with carbapenem-resistance.
as §1

CREC E2 = test: MIC, broth dilution; format: cell-based, carbapenem-resistant E. coli; conditions: read-out: Minimal Inhibitory Concentration (MIC)
Description: as §2, §1

CREC E1 = test: MIC, broth dilution; format: cell-based, carbapenem-resistant E. coli; conditions: read-out: Minimal Inhibitory Concentration (MIC)
Description: as §2, §1

E. coli = test: MIC, broth dilution; format: cell-based, Escherichia coli KCTC 1682; conditions: Escherichia coli, 16 h, read-out: Minimal Inhibitory Concentration (MIC)
Description: as §2, §1

A. baumannii = test: MIC, broth dilution; format: cell-based, Acinetobacter baumannii KCCM 40203; conditions: 16 h, MH media, read-out: Minimal Inhibitory Concentration (MIC)
Description: as §2, §1

CRAB C0 [2] = test: Biofilm assay, crystal violet staining; format: cell-based, carbapenem-resistant A. baumannii; conditions: 16 h
Experimental: Figure 4 Pro9-3 and its analogs have biofilm inhibition properties against CRAB. The antibiofilm activities of peptides (0–32 μM, 16 h) on (A) A. baumannii and (B) CRAB C0 strains were measured by crystal violet staining and the number of attached cells were read at 595 nm. Melittin, meropenem and imipenem were used as a control. Data are shown as the mean ± SEM (n = 3) and are statistically significant at * p < 0.05; *** p < 0.001; ns, not significant (two-way analysis of variance (ANOVA) with Dunnett’s comparison test).
The effects of peptides on biofilm inhibition of A. baumannii and CRAB C0 strains were performed as described previously. […] After treatment, bacterial cells were fixed with methanol (100%, 15 min) followed by crystal violet staining (0.1% (w/v) in 0.25% (v/v) acetic acid for 1 h). The plates were washed with distilled H2O, allowed to dry, and dissolved in ethanol (100% v/v). The color development representing the degree of biofilm was measured at 595 nm.

CRKP K1 = test: MIC, broth dilution; format: cell-based, carbapenem-resistant K. pneumoniae; conditions: read-out: Minimal Inhibitory Concentration (MIC)
Description: as §2, §1

CRKP K2 = test: MIC, broth dilution; format: cell-based, carbapenem-resistant K. pneumoniae; conditions: read-out: Minimal Inhibitory Concentration (MIC)
Description: as §2, §1

CRAB C0 [3] = test: MIC, broth dilution; format: cell-based, carbapenem-resistant A. baumannii; conditions: read-out: Minimal Inhibitory Concentration (MIC)
Description: as §2, §1

CRAB C5 = test: MIC, broth dilution; format: cell-based, carbapenem-resistant A. baumannii; conditions: read-out: Minimal Inhibitory Concentration (MIC)
Description: as §2, §1

CRAB C2 = test: MIC, broth dilution; format: cell-based, carbapenem-resistant A. baumannii; conditions: read-out: Minimal Inhibitory Concentration (MIC)
Description: as §2, §1

CRAB C9 = test: MIC, broth dilution; format: cell-based, carbapenem-resistant A. baumannii; conditions: read-out: Minimal Inhibitory Concentration (MIC)
Description: as §2, §1

CRAB C6 = test: MIC, broth dilution; format: cell-based, carbapenem-resistant A. baumannii; conditions: read-out: Minimal Inhibitory Concentration (MIC)
Description: as §2, §1

CRAB C10 = test: MIC, broth dilution; format: cell-based, carbapenem-resistant A. baumannii; conditions: read-out: Minimal Inhibitory Concentration (MIC)
Description: as §2, §1

CRAB C7 = test: MIC, broth dilution; format: cell-based, carbapenem-resistant A. baumannii; conditions: read-out: Minimal Inhibitory Concentration (MIC)
Description: as §2, §1

CRAB C3 = test: MIC, broth dilution; format: cell-based, carbapenem-resistant A. baumannii; conditions: read-out: Minimal Inhibitory Concentration (MIC)
Description: as §2, §1

CRAB C4 = test: MIC, broth dilution; format: cell-based, carbapenem-resistant A. baumannii; conditions: read-out: Minimal Inhibitory Concentration (MIC)
Description: as §2, §1

CRAB C8 = test: microbe, parasite or virus in culture; conditions: for MIC: Acinetobacter baumannii, read-out: Minimal Inhibitory Concentration (MIC)
Description: as §2, §1

CRAB C1 = test: microbe, parasite or virus in culture; conditions: for MIC: Acinetobacter baumannii, read-out: Minimal Inhibitory Concentration (MIC)
Description: as §2, §1

K. pneumoniae = test: microbe, parasite or virus in culture; conditions: 16 h; for MIC: Klebsiella pneumoniae, read-out: Minimal Inhibitory Concentration (MIC)
Description: as §2, §1

CRAB C0 spheroplasts = test: Cytoplasmic membrane depolarization of CRAB C0 spheroplasts (diSC3-5); format: cell-based, carbapenem-resistant A. baumannii; conditions: 4 μM
Experimental: (§3) The depolarization capacity by peptides were measured by using a membrane potential sensitive dye 3,3′-dipropylthiadicarbocyanine iodide (diSC3-5) as previously described using intact CRAB C0. Briefly, CRAB C0 cells were washed using wash buffer (5 mM HEPES, 20 mM glucose, pH 7.4). The cells were resuspended in dilution buffer (5 mM HEPES, 20 mM glucose, 0.1 M KCl, pH 7.4) and then incubated with diSC3-5 dye (1 h). In parallel, spheroplasts of CRAB C0 cells (contains plasma membrane and peptidoglycans) were prepared by damaging outer membrane using osmotic shock, as described previously. Finally, varying concentrations of peptide treated cells, negative control (cells with dye) and positive control (1% triton X-100) were recorded for change in fluorescence using fluorescent spectrophotometer and expressed as percent depolarization.

intact CRAB C0 = test: Depolarization of intact CRAB C0 (diSC3-5); format: cell-based, carbapenem-resistant A. baumannii; conditions: 4 μM
Experimental: as §3

LPS (E. coli O111:B4) = test: Peptide-LPS binding, BODIPY-TR-cadaverine displacement assay; conditions: 4 μM
Experimental: The binding abilities of the peptides with LPS was analyzed by BODIPY-TR cadaverine (BC, Thermo Fisher Scientific, Waltham, MA, USA)-displacement assay. The probe complex was prepared by mix 5 μg/mL BC with 5 μg/mL LPS (E. coli O111:B4, Sigma-Aldrich, St. Louis, MO, USA) in a 50 mM Tris buffer (pH 7.4) at room temperature for 6 h. Peptides including polymyxin B (PMB) control (1–64 μM) were allowed to interact with LPS–BC mix in a black 96-well plate for 30 min. The relative fluorescence intensity was recorded at an excitation wavelength of 580 nm and emission wavelength of 620 nm using a fluorescence microplate reader (Molecular Devices, San Jose, CA, USA).

LPS = test: Limulus amebocyte lysate (LAL) assay, LPS neutralization; format: biochemical; conditions: 1.6 μM
Experimental: Peptide-mediated LPS neutralization was determined using LAL assay (GenScript, Piscataway, NJ, USA). Briefly, peptides 10 μL each (3.1, 6.3, 12.5, 25, and 50 μM) were allowed to interact with LPS (2 ng/mL) for 10 min at 37 °C. LL-37 was used as a control. A LAL enzyme (10 μL) was added to peptide-LPS complex for 10 min followed by addition of a chromogenic substrate (5 min, 37 °C). The reaction was stopped using color substrates and the absorbance was measured at 545 nm against endotoxin standard. The endotoxin levels are expressed as endotoxin units (EU) per milliliter.

Molecule: C[C@@H](O)[C@H]1C(=O)N2C(C(=O)O)=C(SCCN=CN)C[C@H]12 [Imipenem, reference compound]
- MIC [1]: 90.3 µM (≈ 27 µg/mL)
- MIC (P. aeruginosa): 1 µM (≈ 0.299 µg/mL)
- MIC (CREC E2; Escherichia coli): 16 µM (≈ 4.79 µg/mL)
- MIC (CREC E1; Escherichia coli): > 128 µM
- MIC (E. coli): 0.5 µM (≈ 0.15 µg/mL)
- MIC (A. baumannii; Acinetobacter baumannii): 1 µM (≈ 0.299 µg/mL)
- Biofilm inhibition of CRAB C0 (CRAB C0 [2]): unable to inhibit
- MIC (CRKP K1; Klebsiella pneumoniae): 32 µM (≈ 9.58 µg/mL)
- MIC (CRKP K2; Klebsiella pneumoniae): > 128 µM
- MIC (CRAB C0 [3]; Acinetobacter baumannii): > 128 µM
- MIC (CRAB C5; Acinetobacter baumannii): 128 µM (≈ 38.3 µg/mL)
- MIC (CRAB C2; Acinetobacter baumannii): > 128 µM
- MIC (CRAB C9; Acinetobacter baumannii): > 128 µM
- MIC (CRAB C6; Acinetobacter baumannii): 128 µM (≈ 38.3 µg/mL)
- MIC (CRAB C10; Acinetobacter baumannii): > 128 µM
- MIC (CRAB C7; Acinetobacter baumannii): 128 µM (≈ 38.3 µg/mL)
- MIC (CRAB C3; Acinetobacter baumannii): 128 µM (≈ 38.3 µg/mL)
- MIC (CRAB C4; Acinetobacter baumannii): 128 µM (≈ 38.3 µg/mL)
- MIC (CRAB C8): > 128 µM
- MIC (CRAB C1): > 128 µM
- MIC (K. pneumoniae): < 0.25 µM

Molecule: CC[C@H](C)[C@H](NC(=O)CN)C(=O)NCC(=O)N[C@@H](C)C(=O)N[C@H](C(=O)N[C@@H](CC(C)C)C(=O)N[C@@H](CCCCN)C(=O)N[C@H](C(=O)N[C@@H](CC(C)C)C(=O)N[C@H](C(=O)N[C@H](C(=O)NCC(=O)N[C@@H](CC(C)C)C(=O)N1CCC[C@H]1C(=O)N[C@@H](C)C(=O)N[C@@H](CC(C)C)C(=O)N[C@H](C(=O)N[C@@H](CO)C(=O)N[C@@H](Cc1c[nH]c2ccccc12)C(=O)N[C@H](C(=O)N[C@@H](CCCCN)C(=O)N[C@@H](CCCNC(=N)N)C(=O)N[C@@H](CCCCN)C(=O)N[C@@H](CCCNC(=N)N)C(=O)N[C@@H](CCC(N)=O)C(=O)N[C@@H](CCC(N)=O)C(N)=O)[C@@H](C)CC)[C@@H](C)CC)[C@@H](C)O)[C@@H](C)O)C(C)C)C(C)C [Melittin, reference compound]
- MIC (CREC E2): 8 µM (≈ 22.8 µg/mL)
- MIC (CREC E1): 8 µM (≈ 22.8 µg/mL)
- MIC (A. baumannii): 4 µM (≈ 11.4 µg/mL)
- Increase of diSC3-5 fluorescence in CRAB spheroplasts (depolarization) (CRAB C0 spheroplasts): 67.9%
- MIC (CRKP K1): 64 µM (≈ 182 µg/mL)
- MIC (CRKP K2): 64 µM (≈ 182 µg/mL)
- MIC (CRAB C0 [3]): 4 µM (≈ 11.4 µg/mL)
- MIC (CRAB C5): 4 µM (≈ 11.4 µg/mL)
- MIC (CRAB C2): 4 µM (≈ 11.4 µg/mL)
- MIC (CRAB C9): 4 µM (≈ 11.4 µg/mL)
- MIC (CRAB C6): 4 µM (≈ 11.4 µg/mL)
- MIC (CRAB C10): 4 µM (≈ 11.4 µg/mL)
- MIC (CRAB C7): 4 µM (≈ 11.4 µg/mL)
- MIC (CRAB C3): 4 µM (≈ 11.4 µg/mL)
- MIC (CRAB C4): 4 µM (≈ 11.4 µg/mL)
- Minimal Inhibitory Concentration (MIC) (CRAB C8; CRAB C8): 4 µM
- Minimal Inhibitory Concentration (MIC) (CRAB C1; CRAB C1): 4 µM
- Minimal Inhibitory Concentration (MIC) (K. pneumoniae; K. pneumoniae, MH media): 32 µM
- Depolarization of intact CRAB (diSC3-5) (intact CRAB C0): 75.6%

Molecule: polymyxin B [PMB]
- BC displacement (LPS binding) (LPS (E. coli O111:B4)): 76.6%

Molecule: C[C@@H](O)[C@H]1C(=O)N2C(C(=O)O)=C(S[C@@H]3CN[C@H](C(=O)N(C)C)C3)[C@H](C)[C@H]12 [Meropenem, reference compound]
- MIC [1]: 91.9 µM (≈ 35.2 µg/mL)
- MIC (P. aeruginosa): 1 µM (≈ 0.383 µg/mL)
- MIC (CREC E2; Escherichia coli): 16 µM (≈ 6.14 µg/mL)
- MIC (CREC E1; Escherichia coli): > 128 µM
- MIC (E. coli; E. coli, MH media): 0.25 µM (≈ 0.0959 µg/mL)
- MIC (A. baumannii; Acinetobacter baumannii): 0.5 µM (≈ 0.192 µg/mL)
- Biofilm inhibition of CRAB C0 (CRAB C0 [2]): unable to inhibit
- MIC (CRKP K1; Klebsiella pneumoniae): 64 µM (≈ 24.5 µg/mL)
- MIC (CRKP K2; Klebsiella pneumoniae): > 128 µM
- MIC (CRAB C0 [3]; Acinetobacter baumannii): 128 µM (≈ 49.1 µg/mL)
- MIC (CRAB C5; Acinetobacter baumannii): > 128 µM
- MIC (CRAB C2; Acinetobacter baumannii): 128 µM (≈ 49.1 µg/mL)
- MIC (CRAB C9; Acinetobacter baumannii): > 128 µM
- MIC (CRAB C6; Acinetobacter baumannii): > 128 µM
- MIC (CRAB C10; Acinetobacter baumannii): > 128 µM
- MIC (CRAB C7; Acinetobacter baumannii): 128 µM (≈ 49.1 µg/mL)
- MIC (CRAB C3; Acinetobacter baumannii): 128 µM (≈ 49.1 µg/mL)
- MIC (CRAB C4; Acinetobacter baumannii): > 128 µM
- MIC (CRAB C8): > 128 µM
- MIC (CRAB C1): > 128 µM
- MIC (K. pneumoniae): < 0.25 µM

Molecule: LL-37
- LPS neutralization (LAL assay) (LPS): 76.5%
